6 compounds from US8748452B2, “Indolizine derivative and use thereof for medical purposes” (Kissei Pharmaceutical Co., Ltd., priority 2009, dated 2014) can be followed below.

The target in one test is T1, human URAT1 (Homo sapiens, UniProt Q96S37).
T1 construct: expressed in transfected cells; host or cells: COS7 cells (RIKEN CELL BANK RCB0539), transient, pcDNA3.1
T1 sequence (Q96S37 1-553): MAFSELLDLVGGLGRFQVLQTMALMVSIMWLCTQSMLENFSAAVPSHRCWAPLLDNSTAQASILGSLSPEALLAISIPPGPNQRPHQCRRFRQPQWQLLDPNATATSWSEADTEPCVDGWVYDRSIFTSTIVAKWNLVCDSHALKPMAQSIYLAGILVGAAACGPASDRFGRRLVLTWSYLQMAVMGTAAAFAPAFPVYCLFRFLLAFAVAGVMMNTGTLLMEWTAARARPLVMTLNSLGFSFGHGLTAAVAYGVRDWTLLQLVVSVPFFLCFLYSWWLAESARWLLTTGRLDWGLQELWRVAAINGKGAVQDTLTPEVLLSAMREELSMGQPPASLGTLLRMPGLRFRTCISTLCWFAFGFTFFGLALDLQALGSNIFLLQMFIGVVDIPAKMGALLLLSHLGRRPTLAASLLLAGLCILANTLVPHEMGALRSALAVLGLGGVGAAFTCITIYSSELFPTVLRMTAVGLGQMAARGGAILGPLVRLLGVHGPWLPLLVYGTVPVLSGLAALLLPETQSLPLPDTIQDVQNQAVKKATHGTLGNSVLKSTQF
Put plainly: Inhibitory activity of uric acid transport with human URAT1 expressing cells. It counts as cell-based. The conditions noted are these: COS-7; concentration of 10 μM; 14C-labeled uric acid 20 μM, 5 minutes uptake, COS7 cells transiently expressing human URAT1. How it is done:
(1) Preparation of transiently human URAT1 expressing cells
Full length human URAT1 cDNA (NCBI Accession No. NM_144585) was subcloned into expression vector, pcDNA3.1 (Invitrogen). Human URAT1 expression vector was transfected into COS7 cells (RIKEN CELL BANK RCB0539) using Lipofectamine 2000 (Invitrogen). COS7 cells were seeded in collagen-coated 24 well plates (Beckton Dickinson) at 3×10^5 cells / well and cultured in D-MEM culture medium (Invitrogen) containing 10% fetal bovine serum (Sanko Junyaku) for 2 hours at 37° C. under the condition of 5% CO2. For 1 well, 2 μL of Lipofectamine 2000 was diluted in 50 μL of OPTI-MEM (Invitrogen) and allowed to stand at room temperature for 7 minutes (hereinafter referred to as Lipo2000-OPTI). For 1 well, 0.8 μg of human URAT1 expression vector was diluted in 50 μL of OPTI-MEM (Invitrogen) and combined gently with Lipo2000-OPTI. After standing at room temperature for 25 minutes, the mixture was added to COS7 cells at 100 μL/well. Furthermore, COS7 cells were cultured for 2 days at 37° C. under the condition of 5% CO2 and used for measuring inhibitory activity on the uptake.
(2) Preparation of test compounds
Test compounds were dissolved in DMSO (Wako pure chemical) at 10 mM concentration and then diluted to 2 times higher concentration than intended with pre-treatment buffer (125 mM sodium gluconate, 4.8 mM potassium gluconate, 1.2 mM potassium dihydrogen phosphate, 1.2 mM magnesium sulfate, 1.3 mM calcium gluconate, 5.6 mM glucose, 25 mM Hepes, pH 7.4). Pre-treatment buffer without test compounds was used for control. In addition, an equal volume of pre-treatment buffer containing ^14C-labeled uric acid (American Radiolabeled Chemicals, Inc.) was added to test compounds and control, and finally assay buffer including 20 μM uric acid was prepared.
(3) Method for measurement
All tests were performed on hot-plate at 37° C. Pre-treatment buffer and assay buffer were incubated at 37° C. and then used for assays. Medium was removed from plates, and 700 μL of pre-treatment buffer was added, and the cells were pre-incubated for 10 minutes. After repeating the same step, pre-treatment buffer was removed, and assay buffer was added at 400 μL/well. The uptake reaction was carried out for 5 minutes. After terminating the reaction, assay buffer was rapidly removed, and the cells were washed twice with addition of ice-cold pre-treatment buffer at 1.2 mL/well. Then, the cells were lysed by addition of 0.2 mol/L sodium hydroxide at 300 μL/well. The lysed solutions were transferred into Picoplate (PerkinElmer), and Microscinti 40 (PerkinElmer) was added at 600 μL/well. After mixing, the radioactivity was counted in a liquid scintillation counter (PerkinElmer). The radioactivity in COS7 cells not transfected with URAT1 expression vector was also counted under the same condition as control. As a result, it was shown that compounds of Examples 5, 8, 17, 18, 22, 40 and 55 have inhibitory activity of 50% or higher in a concentration of 10 μM.

For test [1], the target named is T2, Xanthine oxidase (from bovine milk, Sigma) (Bos taurus, UniProt P80457).
T2 construct: Xanthine oxidase (from bovine milk, Sigma); purchased Sigma; host or cells: bovine milk
The experiment in a line: Xanthine oxidase inhibitory activity. The test is classed as biochemical. Particulars: xanthine oxidase from bovine milk 0.02 units/mL, xanthine 200 μM, 10 minutes at room temperature, absorbance at 290 nm. On the procedure:
(1) Preparation of test compounds
Test compounds were dissolved in DMSO (Wako pure chemical) at 40 mM concentration and then diluted to intended concentrations with phosphate-buffered saline (PBS).
(2) Method for measurement
Xanthine oxidase (from bovine milk, Sigma) was prepared with phosphate-buffered saline (PBS) at 0.02 units/mL, and then the solution was added to 96 well plates at 50 μL/well. In addition, test compounds diluted with PBS were added at 50 μL/well. Xanthine (Wako pure chemical) at 200 μM prepared with PBS was added at 100 μL/well, and the mixture was reacted for 10 minutes at room temperature. Absorbance at 290 nm was measured using a microplate reader SpectraMax Plus 384 (Molecular device). The absorbance under a condition without xanthine is 0%, and control without test compounds is 100%. Fifty % inhibitory concentration (IC50) of test compounds was calculated (Table 17). Ex. No. in the table indicates Example number.

A further test has as its system male CD (SD) IGS rats. The experiment in a line: Serum hypouricemic effect. It counts as in vivo. The conditions noted are these: Rattus norvegicus; 1 mg/kg oral gavage, overnight fasted male rats, serum at 2 hours after administration; read-out: percent decrease in uric acid. On the procedure: Test compounds at 1 mg/kg suspended in 0.5% methylcellulose solution were administered by oral gavage administration to overnight fasted male CD (SD) IGS rats (5-week-old, Charls River Japan). At 2 hours after administration, blood was collected under ether anesthesia from abdominal aorta, and serum was separated according to general method. Serum uric acid values were determined by use of uric acid measurement kit (Uric acid C-Test Wako: Wako pure chemical), and percent decrease in uric acid was calculated according to the formula described below. As a result, it was shown that compounds of Examples 2, 7, 10, 22, 23, 25, 37, 49, 50 and 58 have over 60% percent decrease in uric acid.
Percent decrease in uric acid (%)=(Serum uric acid values in control animals−Serum uric acid values in animals administered test compounds)×100/Serum uric acid values in control animals

T2 sequence (P80457 whole entry): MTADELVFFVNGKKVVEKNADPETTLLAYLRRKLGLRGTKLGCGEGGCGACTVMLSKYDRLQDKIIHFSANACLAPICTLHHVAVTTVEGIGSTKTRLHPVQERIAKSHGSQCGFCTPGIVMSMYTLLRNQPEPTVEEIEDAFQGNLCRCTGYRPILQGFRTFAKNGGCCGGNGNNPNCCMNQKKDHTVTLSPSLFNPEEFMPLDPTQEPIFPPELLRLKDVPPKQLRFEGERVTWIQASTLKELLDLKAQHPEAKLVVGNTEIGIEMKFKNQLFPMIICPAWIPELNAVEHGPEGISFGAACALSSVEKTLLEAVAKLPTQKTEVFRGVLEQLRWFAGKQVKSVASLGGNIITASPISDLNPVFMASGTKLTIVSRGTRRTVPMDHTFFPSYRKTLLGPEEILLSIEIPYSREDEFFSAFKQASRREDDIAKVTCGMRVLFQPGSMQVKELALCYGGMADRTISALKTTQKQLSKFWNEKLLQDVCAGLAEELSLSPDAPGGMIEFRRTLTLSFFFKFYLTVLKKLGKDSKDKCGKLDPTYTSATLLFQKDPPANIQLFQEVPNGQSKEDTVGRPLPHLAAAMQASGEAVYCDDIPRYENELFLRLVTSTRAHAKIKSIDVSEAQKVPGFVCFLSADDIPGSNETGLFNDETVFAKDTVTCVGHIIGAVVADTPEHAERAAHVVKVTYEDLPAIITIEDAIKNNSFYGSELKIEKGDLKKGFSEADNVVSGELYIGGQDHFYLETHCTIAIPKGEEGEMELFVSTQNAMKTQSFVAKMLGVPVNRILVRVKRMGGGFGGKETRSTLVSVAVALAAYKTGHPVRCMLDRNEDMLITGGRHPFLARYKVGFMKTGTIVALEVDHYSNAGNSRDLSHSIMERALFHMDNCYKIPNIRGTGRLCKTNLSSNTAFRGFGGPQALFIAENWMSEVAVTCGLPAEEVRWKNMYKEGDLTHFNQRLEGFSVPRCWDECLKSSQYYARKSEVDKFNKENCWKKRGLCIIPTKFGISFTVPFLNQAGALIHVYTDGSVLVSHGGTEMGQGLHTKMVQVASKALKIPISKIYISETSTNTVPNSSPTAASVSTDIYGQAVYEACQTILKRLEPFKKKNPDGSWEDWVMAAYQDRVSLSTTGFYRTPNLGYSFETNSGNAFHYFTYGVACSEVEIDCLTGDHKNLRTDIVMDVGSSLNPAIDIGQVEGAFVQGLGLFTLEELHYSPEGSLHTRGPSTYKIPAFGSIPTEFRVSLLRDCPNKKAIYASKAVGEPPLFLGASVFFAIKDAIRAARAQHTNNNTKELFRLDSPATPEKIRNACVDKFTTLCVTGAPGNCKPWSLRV

Usually inhibition stands for how much of the control response was suppressed. For orientation: IC50 means the concentration that inhibits the measured activity by half. Read a high IC50 as lower potency. Turning to `Cc1ccn2c(-c3ccc(C(=O)O)c(O)c3)cc(C#N)c2c1` [Example 18], at human URAT1, the inhibition at 10 µM is at least 50%. In test [1], this compound had an IC50 of 3 nM.

As to `N#Cc1cc(-c2ccc(C(=O)O)cc2)n2cc(F)cc(F)c12` [Example 40], the inhibition at 10 µM against human URAT1 is at least 50%. Also, in test [1], the IC50 was found to be 14 nM.

For the compound `Cc1ccc2c(C#N)cc(-c3ccc(C(=O)O)cc3)n2c1` [Example 5], on human URAT1, the inhibition at 10 µM was at least 50%. Moreover, the IC50 in test [1] came to 10 nM.

`N#Cc1cc(-c2ccc(C(=O)O)c(O)c2)n2cc(F)cc(F)c12` [Example 55] displayed an inhibition at 10 µM against human URAT1 of at least 50%. The compound further displayed an IC50 in test [1] of 6 nM.

`Cc1cc2c(C#N)cc(-c3ccc(C(=O)O)cc3)n2cc1F` [Example 8] returned an inhibition at 10 µM at human URAT1 of at least 50%. The compound further came in with an IC50 in test [1] of 6 nM.

The compound `Cc1cc2c(C#N)cc(-c3ccc(C(=O)O)c(O)c3)n2cc1F` [Example 22] yielded an inhibition at 10 µM against human URAT1 of at least 50%. Also, the IC50 in test [1] is 3 nM. In addition, the inhibition in vivo at 1 mg/kg in the test on male CD (SD) IGS rats is above 60%.
